{
  "source": "patent US20260285850A1",
  "about": "“SUBSTITUTED OXAZOLIDINONES AND IMIDAZOLINONES AS HERBICIDES” (FMC CORPORATION, priority 2023, published 2026)",
  "type_in_all_cases": "in vivo",
  "key": {"[1]": {"test_system": "sedge, umbrella (small-flower umbrella sedge, Cyperus difformis)", "experiment": "Test B flooded paddy test, visual plant response rating 0-100", "conditions": "250 g ai/ha, Flood, applied to paddy water, evaluated after 13 days", "outline": "(§1)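 2-leaf plants; flood 3 cm over soil; compound dosed into paddy water; depth kept constant; greenhouse 13 d; visual scoring vs controls. Dash = no result.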"}, "[2]": {"test_system": "barnyardgrass (Echinochloa crusgalli)", "experiment": "Test B flooded paddy test, visual plant response rating 0-100", "conditions": "250 g ai/ha, Flood, applied to paddy water, evaluated after 13 days", "outline": "as §1"}, "[3]": {"test_system": "ducksalad (Heteranthera limosa)", "experiment": "Test B flooded paddy test, visual plant response rating 0-100", "conditions": "250 g ai/ha, Flood, applied to paddy water, evaluated after 13 days", "outline": "as §1"}, "rice (Oryza sativa)": {"test_system": "rice (Oryza sativa)", "experiment": "Test B flooded paddy test, visual plant response rating 0-100", "conditions": "250 g ai/ha, Flood, applied to paddy water, evaluated after 13 days", "outline": "as §1"}, "[4]": {"test_system": "wheat (Triticum aestivum)", "experiment": "Test A postemergence application, visual injury rating 0-100", "outline": "(§2)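 Plants were grown in a loam soil-sand blend and treated with test chemical in a non-phytotoxic solvent mixture containing surfactant, either sprayed on soil preemergence or applied postemergence to 2-10 cm plants. After 10 days in a greenhouse, injury was scored visually against untreated controls, 0 meaning no effect and 100 complete control.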"}, "[5]": {"test_system": "ragweed (common ragweed, Ambrosia artemisiifolia)", "experiment": "Test A postemergence application, visual injury rating 0-100", "outline": "as §2"}, "kochia (Bassia scoparia) [6]": {"test_system": "kochia (Bassia scoparia)", "experiment": "Test A postemergence application, visual injury rating 0-100", "outline": "as §2"}, "[7]": {"test_system": "blackgrass (Alopecurus myosuroides)", "experiment": "Test A postemergence application, visual injury rating 0-100", "outline": "as §2"}, "corn (Zea mays) [8]": {"test_system": "corn (Zea mays)", "experiment": "Test A postemergence application, visual injury rating 0-100", "outline": "as §2"}, "[9]": {"test_system": "barnyardgrass (Echinochloa crus-galli)", "experiment": "Test A postemergence application, visual injury rating 0-100", "outline": "as §2"}, "[10]": {"test_system": "palmer (palmer amaranth, palmer pigweed, Amaranthus palmeri)", "experiment": "Test A postemergence application, visual injury rating 0-100", "outline": "as §2"}, "[11]": {"test_system": "green foxtail (Setaria viridis)", "experiment": "Test A postemergence application, visual injury rating 0-100", "outline": "as §2"}, "soybean (Glycine max) [12]": {"test_system": "soybean (Glycine max)", "experiment": "Test A postemergence application, visual injury rating 0-100", "outline": "as §2"}, "[13]": {"test_system": "ryegrass, Italian (italian ryegrass, Lolium multiflorum)", "experiment": "Test A postemergence application, visual injury rating 0-100", "outline": "as §2"}, "[14]": {"test_system": "oat, wild (wild oat, Avena fatua)", "experiment": "Test A postemergence application, visual injury rating 0-100", "outline": "as §2"}, "[15]": {"test_system": "horseweed (Erigeron canadensis)", "experiment": "Test A postemergence application, visual injury rating 0-100", "outline": "as §2"}, "[16]": {"test_system": "wheat (Triticum aestivum)", "experiment": "Test A preemergence soil spray, visual injury rating 0-100", "conditions": "10 days", "outline": "as §2"}, "[17]": {"test_system": "ragweed (common ragweed, Ambrosia artemisiifolia)", "experiment": "Test A preemergence soil spray, visual injury rating 0-100", "conditions": "10 days", "outline": "as §2"}, "kochia (Bassia scoparia) [18]": {"test_system": "kochia (Bassia scoparia)", "experiment": "Test A preemergence soil spray, visual injury rating 0-100", "conditions": "10 days", "outline": "as §2"}, "[19]": {"test_system": "blackgrass (Alopecurus myosuroides)", "experiment": "Test A preemergence soil spray, visual injury rating 0-100", "conditions": "10 days", "outline": "as §2"}, "corn (Zea mays) [20]": {"test_system": "corn (Zea mays)", "experiment": "Test A preemergence soil spray, visual injury rating 0-100", "conditions": "10 days", "outline": "as §2"}, "[21]": {"test_system": "barnyardgrass (Echinochloa crus-galli)", "experiment": "Test A preemergence soil spray, visual injury rating 0-100", "conditions": "10 days", "outline": "as §2"}, "[22]": {"test_system": "palmer (palmer amaranth, palmer pigweed, Amaranthus palmeri)", "experiment": "Test A preemergence soil spray, visual injury rating 0-100", "conditions": "10 days", "outline": "as §2"}, "[23]": {"test_system": "green foxtail (Setaria viridis)", "experiment": "Test A preemergence soil spray, visual injury rating 0-100", "conditions": "10 days", "outline": "as §2"}, "soybean (Glycine max) [24]": {"test_system": "soybean (Glycine max)", "experiment": "Test A preemergence soil spray, visual injury rating 0-100", "conditions": "10 days", "outline": "as §2"}, "[25]": {"test_system": "ryegrass, Italian (italian ryegrass, Lolium multiflorum)", "experiment": "Test A preemergence soil spray, visual injury rating 0-100", "conditions": "10 days", "outline": "as §2"}, "[26]": {"test_system": "oat, wild (wild oat, Avena fatua)", "experiment": "Test A preemergence soil spray, visual injury rating 0-100", "conditions": "10 days", "outline": "as §2"}, "[27]": {"conditions": "62 g ai/ha, postemergence, 10 days, 0 = no effect, 100 = complete control"}, "[28]": {"conditions": "Postemergence, 16 g ai/ha, greenhouse 10 days, 0 no effect, 100 complete control"}, "[29]": {"conditions": "62 g ai/ha, 0 = no effect, 100 = complete control"}},
  "data": [
    {"smiles": "COC(=O)COC(=O)C1=CCC(NC(=O)C2(C)CN(c3cc(F)cc(F)c3)C(=O)O2)C1", "note": "(centres unmarked) [Compound 108]", "values": [
      {"measurement": "Plant response rating, Sedge, Umbrella (0 to 100 scale, 0 is no effect and 100 is complete control)", "setting": "[1]", "result": 70},
      {"measurement": "Plant response rating, Barnyardgrass (0 to 100 scale, 0 is no effect and 100 is complete control)", "setting": "[2]", "result": 50},
      {"measurement": "Plant response rating, Ducksalad (0 to 100 scale, 0 is no effect and 100 is complete control)", "setting": "[3]", "result": 70},
      {"measurement": "Plant response rating, Rice (0 to 100 scale, 0 is no effect and 100 is complete control)", "setting": "rice (Oryza sativa)", "result": 85},
      {"measurement": "Wheat plant response rating (0-100)", "setting": "[4]; [27]", "result": 90},
      {"measurement": "Wheat plant response rating (0 to 100 scale)", "setting": "[4]; [28]", "result": 50},
      {"measurement": "Ragweed plant response rating (0-100)", "setting": "[5]; [27]", "result": 40},
      {"measurement": "Ragweed plant response rating (0 to 100 scale)", "setting": "[5]; [28]", "result": 20},
      {"measurement": "Kochia plant response rating (0-100)", "setting": "kochia (Bassia scoparia) [6]; [27]", "result": 90},
      {"measurement": "Kochia plant response rating (0 to 100 scale)", "setting": "kochia (Bassia scoparia) [6]; [28]", "result": 80},
      {"measurement": "Blackgrass plant response rating (0-100)", "setting": "[7]; [27]", "result": 90},
      {"measurement": "Blackgrass plant response rating (0 to 100 scale)", "setting": "[7]; [28]", "result": 70},
      {"measurement": "Corn plant response rating (0-100)", "setting": "corn (Zea mays) [8]; [27]", "result": 100},
      {"measurement": "Corn plant response rating (0 to 100 scale)", "setting": "corn (Zea mays) [8]; [28]", "result": 100},
      {"measurement": "Barnyardgrass plant response rating (0-100)", "setting": "[9]; [27]", "result": 100},
      {"measurement": "Barnyardgrass plant response rating (0 to 100 scale)", "setting": "[9]; [28]", "result": 90},
      {"measurement": "Pigweed, Palmer plant response rating (0-100)", "setting": "[10]; [27]", "result": 90},
      {"measurement": "Pigweed, Palmer plant response rating (0 to 100 scale)", "setting": "[10]; [28]", "result": 70},
      {"measurement": "Foxtail, Green plant response rating (0-100)", "setting": "[11]; [27]", "result": 90},
      {"measurement": "Foxtail, Green plant response rating (0 to 100 scale)", "setting": "[11]; [28]", "result": 60},
      {"measurement": "Soybean plant response rating (0-100)", "setting": "soybean (Glycine max) [12]; [27]", "result": 70},
      {"measurement": "Soybean plant response rating (0 to 100 scale)", "setting": "soybean (Glycine max) [12]; [28]", "result": 60},
      {"measurement": "Ryegrass, Italian plant response rating (0-100)", "setting": "[13]; [27]", "result": 80},
      {"measurement": "Ryegrass, Italian plant response rating (0 to 100 scale)", "setting": "[13]; [28]", "result": 60},
      {"measurement": "Oat, Wild plant response rating (0-100)", "setting": "[14]; [27]", "result": 80},
      {"measurement": "Oat, Wild plant response rating (0 to 100 scale)", "setting": "[14]; [28]", "result": 30},
      {"measurement": "Horseweed plant response rating (0-100)", "setting": "[15]; [27]", "result": 70},
      {"measurement": "Horseweed plant response rating (0 to 100 scale)", "setting": "[15]; [28]", "result": 30},
      {"measurement": "Wheat plant response rating", "setting": "[16]; 16 g ai/ha, 0 to 100 scale", "result": 90},
      {"measurement": "Wheat plant response rating (0-100)", "setting": "[16]; [29]", "result": 90},
      {"measurement": "Ragweed plant response rating", "setting": "[17]; 16 g ai/ha, 0 to 100 scale", "result": 0},
      {"measurement": "Ragweed plant response rating (0-100)", "setting": "[17]; [29]", "result": 0},
      {"measurement": "Kochia plant response rating", "setting": "kochia (Bassia scoparia) [18]; 16 g ai/ha, 0 to 100 scale", "result": 0},
      {"measurement": "Kochia plant response rating (0-100)", "setting": "kochia (Bassia scoparia) [18]; [29]", "result": 50},
      {"measurement": "Blackgrass plant response rating", "setting": "[19]; 16 g ai/ha, 0 to 100 scale", "result": 0},
      {"measurement": "Blackgrass plant response rating (0-100)", "setting": "[19]; [29]", "result": 30},
      {"measurement": "Corn plant response rating", "setting": "corn (Zea mays) [20]; 16 g ai/ha, 0 to 100 scale", "result": 30},
      {"measurement": "Corn plant response rating (0-100)", "setting": "corn (Zea mays) [20]; [29]", "result": 60},
      {"measurement": "Barnyardgrass plant response rating", "setting": "[21]; 16 g ai/ha, 0 to 100 scale", "result": 20},
      {"measurement": "Barnyardgrass plant response rating (0-100)", "setting": "[21]; [29]", "result": 100},
      {"measurement": "Pigweed, Palmer plant response rating", "setting": "[22]; 16 g ai/ha, 0 to 100 scale", "result": 30},
      {"measurement": "Pigweed, Palmer plant response rating (0-100)", "setting": "[22]; [29]", "result": 90},
      {"measurement": "Foxtail, Green plant response rating", "setting": "[23]; 16 g ai/ha, 0 to 100 scale", "result": 30},
      {"measurement": "Foxtail, Green plant response rating (0-100)", "setting": "[23]; [29]", "result": 100},
      {"measurement": "Soybean plant response rating", "setting": "soybean (Glycine max) [24]; 16 g ai/ha, 0 to 100 scale", "result": 0},
      {"measurement": "Soybean plant response rating (0-100)", "setting": "soybean (Glycine max) [24]; [29]", "result": 10},
      {"measurement": "Ryegrass, Italian plant response rating", "setting": "[25]; 16 g ai/ha, 0 to 100 scale", "result": 70},
      {"measurement": "Ryegrass, Italian plant response rating (0-100)", "setting": "[25]; [29]", "result": 90},
      {"measurement": "Oat, Wild plant response rating", "setting": "[26]; 16 g ai/ha, 0 to 100 scale", "result": 0},
      {"measurement": "Oat, Wild plant response rating (0-100)", "setting": "[26]; [29]", "result": 70}
    ]}
  ]
}
